According to PubChem BioAssay (NCI):
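Step 1: Grow cells in 96-well plates. Step 2: Expose to compound for 48 hours at 5 concentrations. Step 3: Interpolate endpoints linearly; if unreached, use highest concentration. GI50 marks 50% less growth. Definition used: TGI = concentration required for complete inhibition of growth.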

How the values were obtained:
Assay in all cases: NCI tumour cell line growth inhibition, 48 h
MDA-N = system: MDA-N
LXFL 529 NSCLC = system: LXFL 529 NSCLC
DMS 273 small cell lung = system: DMS 273 small cell lung
SNB-78 CNS = system: SNB-78 CNS
DMS 114 small cell lung = system: DMS 114 small cell lung
M19-MEL melanoma = system: M19-MEL melanoma
XF 498 CNS = system: XF 498 CNS
RXF-631 renal = system: RXF-631 renal
HOP-18 NSCLC = system: HOP-18 NSCLC

Row | Structure (SMILES) | TGI (LXFL 529 NSCLC) [µM] | TGI (DMS 273 small cell lung) [µM] | TGI (SNB-78 CNS) [µM] | TGI (DMS 114 small cell lung) [µM] | TGI (M19-MEL melanoma) [µM] | TGI (XF 498 CNS) [µM] | TGI (RXF-631 renal) [µM] | TGI (HOP-18 NSCLC) [µM] | also measured
1 | OCCn1cnc2c(SCc3ccccc3)ncnc21 | – | – | – | – | – | – | – | – | TGI (MDA-N): > 100 µM
2 | CN(C)C(=O)c1ccc([N+](=O)[O-])cc1 | > 100 | > 100 | > 100 | > 100 | > 100 | – | – | – | –
3 | CCc1cccc(C)c1NC(=O)C1=C(C)NC(C)=C(C(=O)Nc2c(C)cccc2CC)C1c1ccc2c(c1)OCO2 | 39.9 | – | > 100 | 38.7 | 45.6 | 31 | 54 | – | –
4 | CC1(C)CC2CC(CC(C)(C)C2=O)C1=O | > 100 | > 100 | > 100 | > 100 | > 100 | > 100 | > 100 | > 100 | –
5 | C[CH2][Sn]([CH2]C)([O]C(=O)c1ccccc1F)[O][Sn]([CH2]C)([CH2]C)[O]C(=O)c1ccccc1F | 22.1 | > 100 | 46.7 | 30 | > 100 | 29.9 | – | 51.6 | GI50 (LXFL 529 NSCLC): 9.79 µM; GI50 (DMS 273 small cell lung): > 62.6 µM; GI50 (SNB-78 CNS): 18.7 µM; GI50 (XF 498 CNS): 16.1 µM; GI50 (DMS 114 small cell lung): 15.8 µM; GI50 (M19-MEL melanoma): 28.6 µM; GI50 (HOP-18 NSCLC): 22.7 µM
6 | O=C1C(c2cnc3ccccc3n2)=C(O)c2ccccc21 | > 100 | > 100 | > 100 | > 100 | > 100 | – | > 100 | – | TGI (MDA-N): > 100 µM
7 | COc1cccc(NC(=O)CC(=O)N2N=C(n3ccc4ccccc43)CC2c2ccccc2)c1 (stereo not given) | > 100 | > 100 | > 100 | > 100 | > 100 | – | – | > 100 | –
8 | O=[N+]([O-])c1ccc(N2CCC(CCCC3CCN(c4ccc([N+](=O)[O-])cc4[N+](=O)[O-])CC3)CC2)c([N+](=O)[O-])c1 | – | – | – | – | – | – | – | – | TGI (MDA-N): 30.1 µM
9 | CCCN(CCC)C(=O)C(=O)c1c(N)[nH]n(-c2ccccc2)c1=O | > 100 | > 100 | > 100 | > 100 | > 100 | > 100 | > 100 | > 100 | –
10 | CCOC(=O)/C(O)=C(/C(=O)OC)c1ccc(Cl)cc1 | > 100 | > 100 | > 100 | > 100 | > 100 | > 100 | > 100 | – | –
11 | O=[N+]([O-])c1cc(Cl)cnc1Br | – | – | – | – | – | – | – | – | TGI (MDA-N): 12.4 µM
12 | COc1cccc(-c2cc3c4c(nc5ccccc53)C(=O)c3cccnc3-c4n2)c1 | – | – | – | – | – | – | – | – | GI50 (MDA-N): 1.74 µM; TGI (MDA-N): 4.01 µM
13 | NCCN.O=C([O-])CN1CCOCC1.[OH-].[Pt+4] | – | – | – | – | – | – | – | – | GI50 (MDA-N): > 100 µM; TGI (MDA-N): > 100 µM
14 | COC(=O)C(CC1=C(O)Nc2ccccc2N1)/C(=N/NC(N)=O)C(=O)Nc1ccccc1C (stereo not given) | > 100 | 36.9 | > 100 | 26.5 | > 100 | – | – | > 100 | –
15 | COc1cccc(NC(=O)CC(=O)N2N=C(N3c4ccccc4Sc4ccccc43)CC2c2ccccc2)c1 (stereo not given) | > 100 | – | > 100 | > 100 | > 100 | > 100 | – | 62.2 | –
16 | O=C(O)C(CS)NCc1c2ccccc2nc2ccccc12 (stereo not given) | > 100 | 91.3 | – | – | 89.4 | 53.7 | > 100 | – | –

Row | Structure (SMILES) | TGI (LXFL 529 NSCLC) [µM] | TGI (DMS 273 small cell lung) [µM] | TGI (SNB-78 CNS) [µM] | TGI (DMS 114 small cell lung) [µM] | TGI (M19-MEL melanoma) [µM] | TGI (XF 498 CNS) [µM] | TGI (RXF-631 renal) [µM] | TGI (HOP-18 NSCLC) [µM] | also measured
17 | O=c1c(O)c(-c2ccc(O)c(O)c2)oc2cc(O)cc(O)c12 | > 100 | > 100 | > 100 | > 100 | > 100 | > 100 | > 100 | > 100 | –
18 | COc1ccc(COC2CC(OC)OC(C)C2OC(=O)c2ccccc2)cc1 (stereo not given) | > 81.8 | > 100 | > 100 | 81.5 | > 91.1 | 49.4 | > 100 | > 100 | –
19 | O=S(=O)(/C=C/CS(=O)(=O)c1ccccc1)c1ccccc1 | > 100 | > 100 | 89.9 | 52 | > 100 | 62.6 | 52.8 | > 100 | –
20 | COc1cc2c(cc1OC)[C@@H](Nc1ccc(F)cc1)C1COC(=O)[C@@H]1C2c1cc(OC)c(O)c(OC)c1 (stereo not given in full) | > 100 | 8.41 | 97.5 | 10.4 | > 100 | > 24.7 | > 82.7 | > 100 | –
21 | CNC(=O)OCc1c2ccncc2c(C)c2c1[nH]c1ccc(OC)cc12 | 0.37 | > 100 | 0.681 | 1.32 | 1.68 | > 100 | > 100 | 0.738 | –
22 | O=C1/C(=N\O)S(=O)(=O)c2ccccc21 | > 100 | > 100 | > 100 | > 100 | > 100 | – | > 100 | > 100 | –
23 | CC(=O)[CH-]C(=O)c1ccccc1.CC(=O)[CH-]C(=O)c1ccccc1.CC(=O)[CH-]C(=O)c1ccccc1.[In+3] | > 100 | – | – | – | > 100 | – | – | 77.1 | GI50 (LXFL 529 NSCLC): 25.5 µM; GI50 (M19-MEL melanoma): 28.8 µM; GI50 (HOP-18 NSCLC): 43.5 µM
24 | O=C(O)c1nc(-c2ccc(Cl)c(Cl)c2)nc2ccc(Cl)cc12 | > 100 | > 100 | 77.6 | – | > 100 | – | – | – | –
25 | CN1CCc2[nH]nc(-c3n[nH]c4c3CN(C)CC4)c2C1 | – | – | – | – | – | – | – | – | TGI (MDA-N): > 100 µM
26 | CC(C)(c1ccccc1)c1ccc(Oc2ccc(C#N)c(C#N)c2)cc1 | > 100 | – | – | > 100 | > 100 | – | > 100 | – | GI50 (RXF-631 renal): > 100 µM
27 | CCc1ccccc1NC(=O)/C(N=O)=C(/C)O | > 100 | > 100 | > 100 | > 100 | > 100 | > 100 | > 100 | > 100 | –
28 | O=C(NC(=Nc1ccccc1)SCCSC(=Nc1ccccc1)NC(=O)c1cccs1)c1cccs1 | > 100 | > 100 | – | > 100 | > 100 | > 100 | – | – | –
29 | O=C(N/C(=C\c1ccc(/C=C(\NC(=O)c2ccccc2)c2nc3ccccc3[nH]2)cc1)c1nc2ccccc2[nH]1)c1ccccc1 | > 100 | > 100 | > 100 | > 100 | > 100 | > 100 | – | > 100 | –
30 | COc1ccc(CC2(Cc3ccc(OC)cc3)CCOC2=O)cc1 | > 100 | – | – | > 100 | > 100 | 26.1 | – | – | –
31 | CCOc1ccc(NC(=O)C(=O)C(C(=O)c2ccc3ccccc3c2)C2OC(=O)c3ccccc32)cc1 (stereo not given) | 37.4 | 47 | 64.9 | 89.7 | 34.6 | 60.6 | – | 78.1 | –
32 | Oc1c(Cl)c(Cl)c(O)c2c1CCCC2 | – | – | – | – | – | – | – | – | TGI (MDA-N): 31.1 µM
